Measured values reported in US11331271B2, “Buccal, sublingual and intranasal delivery of fospropofol” (The Johns Hopkins University, priority 2016, dated 2022).

Legend:
rats = assay: Sedative studies in rats (0-4 sedation score); format: in vivo, rat
Procedure: The relative potency of fospropofol given via different administration routes was investigated in rats, using sedation as an end point. Intravenous fospropofol doses of 5-40 mg/kg were chosen based on previous studies (Schywalsky, et al., 2003). Based on expected lower oral bioavailability, doses of 100-400 mg/kg were chosen for the PO and ID studies. Following administration of fospropofol, two experimental observers blinded to the treatment, graded the behavior of the rats (n=2-3 per experimental group) every 5 min for a total of 120 min after administration. […] Scores were averaged across treatment groups per time point.

[1] = IV lipid emulsion, humans; cited from earlier work
[2] = rat, oral propofol; cited from earlier work

| SMILES | dose inducing full sedation (average score 3.5 or higher) (rats; ID) | onset of sedation after administration (rats; ID) | dose inducing full sedation (average score 3.5 or higher) (rats; IV) | onset of sedative effects (rats; IV 10-40 mg/kg) | sedative effects abated after infusion (rats; IV 10-40 mg/kg) | dose inducing full sedation (average score 3.5 or higher) (rats; PO) | onset of sedated behavior after dosing (rats; PO) | degree of sedation (rats; PO 100-200 mg/kg) | duration of sedation (rats; PO 100-200 mg/kg) | duration of loss of consciousness (rats; PO 300 and 400 mg/kg) | extraction by the liver [1] | bioavailability of propofol [2] |
| --- | --- | --- | --- | --- | --- | --- | --- | --- | --- | --- | --- | --- |
| CC(C)c1cccc(C(C)C)c1OCOP(=O)(O)O [fospropofol] | 50 mg/kg | ≤ 5 min | 40 mg/kg | ≤ 1 min | ≤ 30 min | 300 to 400 mg/kg | 5 to 10 min | mild to moderate sedation | 1 to 2 h | ≤ 1 h |  |  |
| CC(C)c1cccc(C(C)C)c1O [propofol, 2,6-diisopropylphenol] |  |  |  |  |  |  |  |  |  |  | 80% | 10% |
